The values below come from BindingDB's records for patent US20240174696 (Genentech, 2024).

Each structure is given as a SMILES string.

In this test the target is T1, Serine/threonine-protein kinase LATS2 (Homo sapiens, UniProt Q9NRM7).
T1 sequence (Q9NRM7 whole entry): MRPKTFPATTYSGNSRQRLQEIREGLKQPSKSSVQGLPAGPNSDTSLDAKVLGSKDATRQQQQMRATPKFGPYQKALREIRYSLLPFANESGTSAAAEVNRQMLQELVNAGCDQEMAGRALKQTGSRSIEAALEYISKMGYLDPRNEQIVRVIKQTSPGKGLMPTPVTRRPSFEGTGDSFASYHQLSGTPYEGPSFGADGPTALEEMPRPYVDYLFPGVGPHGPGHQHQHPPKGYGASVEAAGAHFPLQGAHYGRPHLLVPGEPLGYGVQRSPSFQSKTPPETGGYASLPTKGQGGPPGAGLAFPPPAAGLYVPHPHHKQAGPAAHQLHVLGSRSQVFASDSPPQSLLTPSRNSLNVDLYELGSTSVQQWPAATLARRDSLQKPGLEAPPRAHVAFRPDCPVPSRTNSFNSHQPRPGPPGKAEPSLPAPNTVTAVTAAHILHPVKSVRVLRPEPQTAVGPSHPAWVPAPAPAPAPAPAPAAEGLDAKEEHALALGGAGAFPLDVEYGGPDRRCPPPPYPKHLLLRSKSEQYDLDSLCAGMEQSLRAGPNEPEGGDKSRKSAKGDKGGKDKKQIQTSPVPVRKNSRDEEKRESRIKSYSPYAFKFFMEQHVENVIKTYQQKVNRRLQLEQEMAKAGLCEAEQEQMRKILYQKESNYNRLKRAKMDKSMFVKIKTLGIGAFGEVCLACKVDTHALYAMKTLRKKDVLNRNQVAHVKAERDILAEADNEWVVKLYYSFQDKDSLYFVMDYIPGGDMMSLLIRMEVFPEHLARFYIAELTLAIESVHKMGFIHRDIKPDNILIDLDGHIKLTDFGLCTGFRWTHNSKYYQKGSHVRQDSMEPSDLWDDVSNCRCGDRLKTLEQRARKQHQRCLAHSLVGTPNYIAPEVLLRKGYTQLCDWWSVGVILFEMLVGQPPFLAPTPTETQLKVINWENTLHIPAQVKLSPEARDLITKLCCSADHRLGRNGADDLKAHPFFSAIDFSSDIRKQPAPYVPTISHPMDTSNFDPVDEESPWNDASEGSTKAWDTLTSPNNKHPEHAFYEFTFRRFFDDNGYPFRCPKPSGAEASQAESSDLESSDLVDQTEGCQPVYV
As to the kind of experiment: Standard LATS2 HTRF Assay. The method, then: Human LATS2 catalytic domain which contains the amino acids G553-V1088 (accession NP_055387) was purified in-house. The LATS2 catalytic domain was co-purified with Mob1b (accession NP_775739). The LATS2 biochemical HTRF assay was performed using the HTRF KinEASE-STK S1 Kit (Cisbio, Cat #62ST1PEC), following the protocol from the manufacturer. Compounds were dispensed by the Echo Liquid Handler (Labcyte) into a white 384-well plate (PerkinElmer, Cat #6008289). 3 uL of 2×LATS2 enzyme solution was added to the compounds, following by a 10 minute incubation at room temperature. Then, 2×ATP and STK S1 peptide solution was added to initiate the one hour enzyme reaction at room temperature. The final condition of the reaction was 0.2 nM LATS2, 50 μM ATP, 0.5 μM STK S1 peptide in 50 mM HEPES pH7.2, 10 mM MgCl2, 0.1% BGG, 0.005% Brij-35, 1 mM DTT. The reaction was quenched by adding 6 uL of the detection mixture which contained Streptavidin XL665 and STK Antibody-Cryptate (Cisbio), incubate for 1 hour at room temperature. The HTRF (665 nm/620 nm) signal was read on the Envision plater reader (PerkinElmer). The IC50 values were determined by fitting the % inhibition with a nonlinear four-parameter logistical equation. The Ki values were calculated using the Cheng-Prusoff equation for a competitive inhibitor, IC50═Ki (1+S/Km)+M [E] with ATP Km for LATS2=105 μM.

Usually Ki stands for a dissociation constant, usually derived from enzyme kinetics or from competition with a known ligand. With `COc1cncc2nc(-c3ccncc3)nc(N3CCC4(CCN(C)C4)CC3)c12` [US20240174696, Compound 252], the Ki was found to be 0.022 nM.
